The results in this text go back to patent publication US9239334B2, “Fatty acid C16: 1N7-palmitoleate a lipokine and biomarker for metabolic status” (PRESIDENT AND FELLOWS OF HARVARD COLLEGE, priority 2008, dated 2016).

Test [1] deals with AKT phosphorylation in C2C12 myotubes. The test can be described thus: Insulin-stimulated AKT phosphorylation in C2C12 myotubes. Format: cell-based. How it is done: Values of bar plot were determined by phospho-AKT ELISA and corresponding immunoblotting results are shown as Insets.
The bottom panel is the corresponding immunoblotting of total and phosphorylated AKT in cells treated with pooled lipids.
To investigate whether plasma lipids also played a role in regulating muscle insulin action, differentiated C2C12 myotubes were treated with lipid extracts from each genotype and the insulin-stimulated AKT phosphorylation determined using an ELISA system.
The effect of C16:1n7-palmitoleate on muscle insulin signaling was explored by pre-treating C2C12 myotubes with either palmitate or palmitoleate overnight and then stimulating the cells with insulin. […] Conversely, C16:1n7-palmitoleate had little effect on its own in this in vitro setting (FIG. 3G). […]
Samples of 200 μl serum were collected using heparin-coated glass tubes and spun at 13,000 g in a microcentrifuge to separate the plasma. […] Tissue protein lysates was separated with SDS-PAGE gels and phosphorylated or total proteins were detected with the following antibodies: phospho AKT Serine 473, AKT, insulin receptor, phospho-tyrosine (Santa Cruz Biotech.); IRS-1 and IRS-2 (Upstate); phospho-GSK and GSK (Cell Signaling Tech.); phospho-insulin receptor from (Calbiocbem). […]

Test [2] can be described thus: Hyperinsulinemic-euglycemic clamp in palmitoleate-infused mice. Format: in vivo. The source says: FIGS. 7A-7G show data on the regulation of insulin signaling and glucose metabolism by palmitoleate. FIG. 7A is the basal and insulin-stimulated phosphorylation of insulin receptor (IR), insulin receptor substrate-1 (IRS-1) and -2 (IRS-2) and AKT in liver of mice infused with vehicle (Veh), TG:palmitoleate (C16:1n7) or TG:palmitate (C16). Representative blots are shown and quantifications on the right are averaged results of three mice in each treatment group. […] Representative blots are shown and quantifications on the right are averaged results of three mice in each treatment group.
FIG. 7G is the regulation of systemic metabolic responses by adipose-derived lipid hormones (Lipokines). In parallel with a variety of adipokines, specific lipids released from adipocytes in response to physiological stimuli act at remote sites including liver and muscle and regulate systemic lipid and carbohydrate metabolism. Lipid chaperones negatively regulate one of these lipokines, C16:1n7 (palmitoleate), and in the absence of these FABPs, strong flux of palmitoleate from adipose tissue to liver and muscle results in improved metabolic responses.
To investigate whether the increased insulin signaling by elevated serum palmitoleate can be translated into improved glucose metabolism, hyperinsulinemic-euglycemic clamp studies were performed on mice infused with either vehicle or palmitoleate. To enable delivery of lipid at a rate that is compatible with clamp studies, fatty acid:palmitoleate was used instead of TG:palmitoleate. That palmitoleate enhanced both muscle and liver insulin signaling in this setting was confirmed by examining insulin stimulated activation of insulin receptor and AKT (FIG. 21). […] Instead, the increased glucose infusion rate in these mice was driven by enhanced whole body glucose metabolism (FIG. 7F), confirming that the increased insulin signaling by palmitoleate infusion can be directly reflected as improved glycemic control in conscious mice.
INTRALIPID® fatty acid lipid infusion solution with 2 mM triglycerides:palmitate or palmitoleate were prepared using a previously described protocol with modifications (Stein et al., 1997). Briefly, lipids were dissolved in a solvent containing 5% glycerol and 0.72% phosphocholine in 0.9% saline, heated at 80° C. for 10 min, and then sonicated 1 min four times. For TG:palmitoleate, the heating was omitted to avoid oxidization of the lipids. Lipids stay in suspension for a week, so to prevent clogging the preparations must be vortexed well before loading the syringe and tubing. […] Serum FFAs were determined using a commercial kit (Wako Chem.). […]

The mark [3] stands for this setting: hyperinsulinemic-euglycemic clamp, vs vehicle.

The structures appear in SMILES notation.

Regarding `CCCCCC/C=C\CCCCCCCC(=O)O` [palmitoleate, C16:1n7-palmitoleate], the “insulin-stimulated AKT phosphorylation” value in test [1] (C2C12 myotubes pre-treated with fatty acid overnight, then insulin) is on record as “little effect”. The “palmitate-induced reduction in insulin-stimulated AKT phosphorylation” value in test [1] (co-treated with both palmitate and palmitoleate) was “rescued”. In addition, in test [2] (setting [3]), the “glucose infusion rate to maintain euglycemia” value is given as “significantly higher” and the “whole body glucose metabolism (glucose disposal rate)” value is “enhanced”. Further, the “clamped hepatic glucose production” value in test [2] (hyperinsulinemic-euglycemic clamp, vs vehicle controls) is on record as “Neither basal nor clamped hepatic glucose production was significantly changed”. Moreover, the “basal hepatic glucose production” value in test [2] (vs vehicle controls) was “Neither basal nor clamped hepatic glucose production was significantly changed”.
